Read-outs that look alike come from different tables or passages of the source.
Columns and labels:
purified human BChE = biological target: T1, purified human BChE (Homo sapiens, UniProt P06276); experiment: biochemical; format: biochemical; conditions: for Ki: human BChE, Ki ± SE, at least three experiments, ATCh substrate
T1 construct: gift of Dr Florian Nachon, Armed Forces Biomedical Research Institute, Brétigny-sur-Orge, France
Experimental: (§1) Acetylthiocholine (ATCh) and 5,5’-dithiobis(2-nitrobenzoic acid) (DTNB) were purchased from Sigma Chemical Co., St. Louis, MO, USA. ATCh was dissolved in water and DTNB in 0.1 M sodium phosphate buffer (pH 7.4). […] Purified human BChE and recombinant human AChE were kindly provided by Dr Florian Nachon (Département de Toxicologie, Armed Forces Biomedical Research Institute, Brétigny-sur-Orge, France). The enzymes were diluted in a phosphate sodium buffer 0.1 M (pH 7.4) containing 0.01% BSA.
(§2) Cholinesterase activity measurements, evaluation of Ki (dissociation constants of enzyme−inhibitor complex) and Ks constants (dissociation constants of enzyme−substrate complex) were performed following procedures described previously. Briefly, enzyme activity was measured spectrophotometrically using a slightly modified Ellman method. […] At least three concentrations of inhibitors for each substrate concentration were used in at least three experiments.
(§3) The y-intercept determines the enzyme–inhibitor dissociation constants (Ki), while the x-intercept determines the enzyme–substrate dissociation constant, KS [57].

recombinant human AChE = biological target: T2, recombinant human AChE (Homo sapiens, UniProt P22303); experiment: Inhibition of human AChE (Ellman method, Hunter–Downs Ki); format: biochemical; conditions: for Ki: human AChE, Ki ± SE, at least three experiments, ATCh substrate; for SI = Ki(BChE)/Ki(AChE): selectivity index, AChE over BChE
T2 construct: gift of Dr Florian Nachon, Armed Forces Biomedical Research Institute, Brétigny-sur-Orge, France
T2 sequence (P22303 32-614): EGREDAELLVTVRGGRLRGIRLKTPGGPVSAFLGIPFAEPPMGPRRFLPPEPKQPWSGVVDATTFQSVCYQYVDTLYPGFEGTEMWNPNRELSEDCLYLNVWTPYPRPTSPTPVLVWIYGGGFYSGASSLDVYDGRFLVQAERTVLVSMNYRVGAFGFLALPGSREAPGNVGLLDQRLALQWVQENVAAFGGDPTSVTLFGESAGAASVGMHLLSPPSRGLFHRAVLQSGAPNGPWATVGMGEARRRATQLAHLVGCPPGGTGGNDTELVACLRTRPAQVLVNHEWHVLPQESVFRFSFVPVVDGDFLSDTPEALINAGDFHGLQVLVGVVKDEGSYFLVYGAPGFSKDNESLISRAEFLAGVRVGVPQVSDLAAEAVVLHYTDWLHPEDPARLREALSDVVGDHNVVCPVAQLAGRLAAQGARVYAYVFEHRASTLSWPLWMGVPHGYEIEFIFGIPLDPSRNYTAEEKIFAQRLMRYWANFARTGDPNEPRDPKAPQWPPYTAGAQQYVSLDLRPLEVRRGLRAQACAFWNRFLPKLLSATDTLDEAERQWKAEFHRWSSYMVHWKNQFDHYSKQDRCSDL
Experimental: as §1, §2, §3

[1] = Cytotoxicity MTS assay, HEK293; format: cell-based; conditions: 24 h exposure
Experimental: (§4) The human hepatocyte carcinoma HepG2 (ECACC 85011430), human embryo kidney HEK293 (ECACC 85120602) and human neuroblastoma SH-SY5Y (ECACC 94030304) cell lines were obtained from the certified cell-bank European Collection of Authenticated Cell Cultures (ECACC) through Sigma-Aldrich (Steinheim, Germany). HepG2 and HEK293 cells were grown in EMEM and SH-SY5Y in DMEM-F12, as described previously, and cell cultivation and maintenance were conducted according to standard protocol. All media and supplements were purchased from Sigma-Aldrich, Steinheim, Germany.
(§5) The cytotoxic profiles of tested compounds were determined by measuring the succinate dehydrogenase mitochondrial activity of exposed cells. The commercially available MTS detection reagent assay (CellTiter 96® AQueous One Solution Cell Proliferation Assay, Promega, Madison, WI, USA) was used. The procedure followed a previously described protocol. Cells were exposed to compounds in a concentration range of 0.01–1000 µM for 24 h. DMSO (20%) was used as positive control to validate the method. After desired time of incubation at 37 °C in a 5% CO2 atmosphere, cells were washed with PBS buffer and 100 µL of EMEM or DMEM medium and 20 µL of MTS were added in each well, incubated up to 1 h after which the absorbance was read at 492 nm on an Infinite M200PRO plate reader (Tecan Austria GmbH, Salzburg, Austria). Data are presented as percentages of the inhibited cells to control untreated cells, i.e., the percentage of cytotoxicity.

[2] = Cytotoxicity MTS assay, SH-SY5Y; format: cell-based; conditions: 24 h exposure
Experimental: HepG2 and HEK293 cells were grown in EMEM and SH-SY5Y in DMEM-F12, as described previously, and cell cultivation and maintenance were conducted according to standard protocol. All media and supplements were purchased from Sigma-Aldrich, Steinheim, Germany.
as §5

[3] = Cytotoxicity MTS assay, HepG2; format: cell-based; conditions: 24 h exposure
Experimental: as §4, §5

[4] = FRAP assay (ferric reducing antioxidant power); conditions: 10 µM compound
Experimental: The in vitro antioxidant activity of tested compounds was evaluated using the FRAP assay following a procedure described earlier. […] Trolox and butylated hydroxytoluene (BHT) were used as standard antioxidants. The absorbance was recorded at 593 nm using a microplate reader (SpectraMax iD3, Molecular Devices, San Jose, CA, USA) against a blank. All measurements were taken in three independent triplicates in at least three independent experiments. FRAP values, denominating the reduction of ferric-tripyridyltriazine (Fe^3+-TPTZ) to ferrous tripyridyltriazine (Fe^2+-TPTZ) by the tested compounds, were calculated on the basis of a standard curve obtained using […].

[5] = tested on: HepG2, HEK293 and SH-SY5Y; experiment: Cytotoxicity MTS assay, over all three cell lines; format: cell-based, human; conditions: 24 h exposure
Experimental: as §4, §5

[6] = Cytotoxicity MTS assay, over all three cell lines; format: cell-based, human; conditions: human, HEK293 and SH-SY5Y cells; HepG2, HEK293, SH-SY5Y; 24 h exposure
Experimental: as §4, §5

[7] = human, SH-SY5Y cells, IC50 ± SE

T1 sequence (P06276 29-602): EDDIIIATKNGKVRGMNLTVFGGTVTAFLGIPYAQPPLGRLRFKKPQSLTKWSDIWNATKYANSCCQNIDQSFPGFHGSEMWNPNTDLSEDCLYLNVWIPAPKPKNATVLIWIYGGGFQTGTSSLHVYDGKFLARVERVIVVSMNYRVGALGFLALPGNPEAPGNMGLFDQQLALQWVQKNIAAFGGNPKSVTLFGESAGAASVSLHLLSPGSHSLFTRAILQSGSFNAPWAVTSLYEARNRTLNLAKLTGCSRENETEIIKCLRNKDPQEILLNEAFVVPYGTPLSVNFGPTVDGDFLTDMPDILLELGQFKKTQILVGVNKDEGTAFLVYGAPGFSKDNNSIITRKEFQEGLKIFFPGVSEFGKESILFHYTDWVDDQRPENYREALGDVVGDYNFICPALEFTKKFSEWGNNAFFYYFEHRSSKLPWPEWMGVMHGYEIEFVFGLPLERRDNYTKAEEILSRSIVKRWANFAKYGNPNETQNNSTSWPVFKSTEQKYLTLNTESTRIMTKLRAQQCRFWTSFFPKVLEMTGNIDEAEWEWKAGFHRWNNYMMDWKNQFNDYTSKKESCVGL

Structure (SMILES) | Ki (purified human BChE; Ki BChE) | Ki (recombinant human AChE) | IC50 at 24 h ([1]; in mM) | IC50 at 24 h ([2]; IC50 ± SE) | IC50 at 24 h ([3]; in mM) | Ki (purified human BChE; read-out: Ki BChE) | FRAP value / reducing power compared with Trolox and BHT [4] | SI = Ki(BChE)/Ki(AChE) (recombinant human AChE) | IC50 at 24 h ([1]; human, HEK293 cells, IC50 ± SE) | IC50 at 24 h [2, 7] | IC50 at 24 h ([3]; human, HepG2 cells, IC50 ± SE) | Toxicity to any tested cell type [5] | IC50 at 24 h ([1]; human, HEK293 cells, in mM) | IC50 at 24 h ([2]; human, SH-SY5Y cells, in mM) | IC50 at 24 h ([3]; human, HepG2 cells, in mM) | IC50 at 24 h [6] | FRAP value relative to the FRAP value for BHT [4] | Selectivity to BChE (purified human BChE; BChE over AChE) | AChE inhibition potency, times lower compared to 2 (recombinant human AChE; fold, compared to compound 2)
CCN(CC)Cc1cc(Nc2ccnc3cc(Cl)ccc23)ccc1O [AMQ, Amodiaquine, reference compound] | 9.1 ± 0.7 µM | 0.046 ± 0.001 µM | ≥ 1 mM | 0.134 ± 0.036 mM | ≥ 1 mM |  |  |  |  |  |  |  |  |  |  |  |  |  | 
CCN(CC)Cc1cc(Nc2ccnc3cc(F)ccc23)ccc1O [Compound 1] |  | 0.17 ± 0.01 µM |  |  |  | 13 ± 1 µM | not more than 50% lower than those of either Trolox or BHT | 77 | 0.09 ± 0.022 mM | 0.09 ± 0.01 mM | 0.219 ± 0.028 mM |  |  |  |  |  |  |  | 
CCN(CC)Cc1cc(Nc2ccnc3cc(C(F)(F)F)ccc23)ccc1O [Compound 2] |  | 0.075 ± 0.003 µM |  |  |  | 7.3 ± 0.8 µM |  | 97 |  |  |  | not toxic to any tested cell type | ≥ 1 mM | ≥ 1 mM | ≥ 1 mM |  |  |  | 
CCN(CC)Cc1cc(Nc2ccnc3cc(C#N)ccc23)ccc1O [Compound 3] |  | 0.078 ± 0.004 µM |  |  |  | 19 ± 1 µM | not more than 50% lower than those of either Trolox or BHT |  | 0.103 ± 0.003 mM | 0.098 ± 0.003 mM | 0.471 ± 0.019 mM |  |  |  |  | ≥ 100 µM |  |  | 
CCN(CC)Cc1cc(Nc2ccnc3cc([N+](=O)[O-])ccc23)ccc1O [Compound 4] |  | 0.084 ± 0.003 µM |  |  |  | 14 ± 1 µM |  |  | 0.033 ± 0.003 mM | 0.026 ± 0.004 mM | 0.039 ± 0.006 mM |  |  |  |  |  |  |  | 
CCN(CC)Cc1cc(Nc2ccnc3cc(OC)ccc23)ccc1O [Compound 5] |  | 0.025 ± 0.001 µM |  |  |  | 7.6 ± 0.4 µM | not more than 50% lower than those of either Trolox or BHT | 300 | 0.037 ± 0.011 mM | 0.036 ± 0.005 mM | 0.1 ± 0.01 mM |  |  |  |  |  | higher than 50% |  | 
CCN(CC)Cc1cc(Nc2ccnc3ccccc23)ccc1O [Compound 6] |  | 0.23 ± 0.01 µM |  |  |  | 5.9 ± 0.8 µM |  | 26 | 0.35 ± 0.04 mM | 0.453 ± 0.012 mM |  |  |  |  | ≥ 1 mM | ≥ 100 µM | higher than 50% |  | 
CCN(CC)Cc1cc(Nc2ccnc3ccc(F)cc23)ccc1O [Compound 7] |  | 0.051 ± 0.002 µM |  |  |  | 11 ± 1 µM | not more than 50% lower than those of either Trolox or BHT |  | 0.159 ± 0.041 mM | 0.181 ± 0.041 mM | 0.529 ± 0.029 mM |  |  |  |  | ≥ 100 µM |  |  | 
CCN(CC)Cc1cc(Nc2ccnc3c(F)cccc23)ccc1O [Compound 8] |  | 0.51 ± 0.03 µM |  |  |  | 5.4 ± 0.5 µM |  | 11 | 0.134 ± 0.047 mM | 0.085 ± 0.005 mM |  |  |  |  | ≥ 1 mM |  |  |  | 
CCN(CC)Cc1cc(Nc2ccnc3ccc(C(F)(F)F)cc23)ccc1O [Compound 9] |  | 0.093 ± 0.003 µM |  |  |  | 14 ± 1 µM |  |  |  |  |  | not toxic to any tested cell type | ≥ 1 mM | ≥ 1 mM | ≥ 1 mM | ≥ 100 µM |  |  | 
CCN(CC)Cc1cc(Nc2ccnc3c(C(F)(F)F)cccc23)ccc1O [Compound 10] |  | 1.2 ± 0.1 µM |  |  |  | 20 ± 1 µM |  | 17 | 0.087 ± 0.033 mM | 0.088 ± 0.008 mM |  |  |  |  | ≥ 1 mM |  |  |  | 
CCN(CC)Cc1cc(Nc2cc(C(F)(F)F)nc3ccccc23)ccc1O [Compound 11] |  | 7.6 ± 0.3 µM |  |  |  | 1.7 ± 0.1 µM | not more than 50% lower than those of either Trolox or BHT | 0.22 | 0.025 ± 0.004 mM | 0.035 ± 0.005 mM | 0.232 ± 0.068 mM |  |  |  |  |  |  | about five times more selective to BChE | 100
CCN(CC)Cc1cc(Nc2ccnc3ccc(C#N)cc23)ccc1O [Compound 12] |  | 0.19 ± 0.01 µM |  |  |  | 21 ± 1 µM |  |  | 0.088 ± 0.031 mM | 0.092 ± 0.017 mM | 0.276 ± 0.046 mM |  |  |  |  |  |  |  | 
CCN(CC)Cc1cc(Nc2ccnc3cccc(C(=O)O)c23)ccc1O [Compound 13] |  | 1.3 ± 0.1 µM |  |  |  | 16 ± 1 µM |  | 12 | 0.103 ± 0.008 mM | 0.148 ± 0.017 mM | 0.546 ± 0.046 mM |  |  |  |  | ≥ 100 µM |  |  | 
CCN(CCO)Cc1cc(Nc2ccnc3cc(Cl)ccc23)ccc1O [Compound 14] |  | 0.11 µM |  |  |  | 6.8 ± 0.3 µM | greater potency than both Trolox and BHT | 62 |  |  |  | not toxic to any tested cell type | ≥ 1 mM | ≥ 1 mM | ≥ 1 mM | ≥ 100 µM | higher than 50% |  | 

— article PMC11596630 (Molecules, 2024)
